Test results as given in patent US20100189811A1, “Biocide compositions comprising 3-methylisothiazolin-3-one and a haloalkyl sulphone” (THOR GmbH, priority 2009, published 2010).

How the values were obtained:
[1] = tested on: Pseudomonas aeruginosa (ATCC 9027); experiment: Minimum inhibitory concentration and synergy index in nutrient agar, visual test for growth; type: cell-based; settings: 48 hours at 30° C.; for Synergy index Qa/QA + Qb/QB: method of Kull et al.
Description: (§1) The synergism of a combination of MIT with diiodomethyl p-tolyl sulphone was tested. Test organisms used were the Gram-negative bacterium Pseudomonas aeruginosa (ATCC 9027) and the mould Aspergillus niger (ATCC16404). For the purpose of the test, mixtures containing different concentrations of MIT and diiodomethyl p-tolyl sulphone were prepared and tested for their action on Pseudomonas aeruginosa and Aspergillus niger respectively. The active compound mixtures in the corresponding concentrations were introduced into selective nutrient media (nutrient agar for Pseudomonas aeruginosa and Sabouraud glucose agar for Aspergillus niger) and the test organisms were likewise incorporated into the agar. The cell density in the agar was in each case 10^6 microbes per ml in the case of Pseudomonas aeruginosa and 10^5 spores per ml in for Aspergillus niger.
(§2) The incubation time is 48 hours (bacteria) or 72 hours (moulds) at 30° C. and 25° C. respectively. This was followed by visual testing for growth of Pseudomonas aeruginosa and Aspergillus niger. In the case of Pseudomonas aeruginosa, growth was apparent by hazing or greenish coloration of the nutrient medium, or by formation of colonies on the surface of the agar. In the case of Aspergillus niger, the growth was apparent through the formation of colonies or mycelia on the surface of the agar. In this way the minimum inhibitory concentrations (MICs) of the two active compounds were determined, individually and in combination. The MIC is the concentration at which there is no longer any hazing, colouring of the agar or colony formation on the surface of the agar (Pseudomonas aeruginosa) and no formation of colonies or mycelia on the surface of the agar (Aspergillus niger).
(§3) The synergism that occurred was presented numerically by calculation of the synergy index (SI). This calculation was made using the common method of F. C. Kull et al., Applied Microbiology, vol. 9 (1961), p. 538. SI is calculated there in accordance with the following formula:
(§4) Synergy index SI=Qa/QA+Qb/QB
(§5) In the application of this formula to the MIT+DIMTS biocide system tested here, the variables in the formula have the following definition:
(§6) Qa=concentration of MIT in the mixture of diiodomethyl p-tolyl sulphone+MIT QA=concentration of MIT as sole biocide Qb=concentration of diiodomethyl p-tolyl sulphone in the biocide mixture QB=concentration of diiodomethyl p-tolyl sulphone as sole biocide
(§7) If the synergy index has a value of more than 1, this means that there is an antagonism.
(§8) If the synergy index adopts a value of 1, this means that the action of the two biocides is additive. If the synergy index takes on a value of below 1, this means that there is synergism of the two biocides.

[2] = tested on: Aspergillus niger (ATCC16404); experiment: Minimum inhibitory concentration and synergy index in Sabouraud glucose agar, visual test for growth; type: cell-based; settings: 72 hours at 25° C.; for Synergy index Qa/QA + Qb/QB: method of Kull et al.
Description: as §1, §2, §3, §4, §5, §6, §7, §8

[3] = concentration of DIMTS (sole or in the mixture) that shows an endpoint
[4] = concentration of MIT (sole or in the mixture) which shows an endpoint

| SMILES | Synergy index Qa/QA + Qb/QB [1] | MHK Qb (DIMTS) [1, 3] [ppm] | Synergy index Qa/QA + Qb/QB [2] | MHK Qb (DIMTS) [2, 3] [ppm] | MHK Qa (MIT) [1, 4] [ppm] | MHK Qa (MIT) [2, 4] [ppm] |
| --- | --- | --- | --- | --- | --- | --- |
| Cc1ccc(S(=O)(=O)C(I)I)cc1 [DIMTS, diiodomethyl p-tolyl sulphone] | 1.00 | 1250 | 1.00 | 10 |  |  |
| Cn1sccc1=O [MIT, 2-methylisothiazolin-3-one] | 1.00 |  | 1.00 |  | 40 | 800 |
